Source: ChEMBL document CHEMBL1144056, “Characterization of 6-epi-3-anhydroophiobolin B from Cochliobolus heterostrophus” (J Nat Prod, 1999)
≈ marks a conversion by molar mass, not a printed value.

Legend:
Plasmodium falciparum [1] = assay: Antimalarial activity against Plasmodium falciparum D6; type: functional, organism-based
[2] = Cytotoxicity against human Mel20 cells; type: functional, cell-based
P388 = assay: Cytotoxicity against mouse P388 cells; type: functional, cell-based
HT-29 = assay: Cytotoxicity against human HT-29 cells; type: functional, cell-based
Plasmodium falciparum [3] = assay: Antimalarial activity against Plasmodium falciparum W2; type: functional, organism-based
A549 = assay: Cytotoxicity against human A549 cells; type: functional, cell-based

For `CC(C)=C[C@H]1C[C@H](C)[C@]2(CC[C@]3(C)C[C@H]4[C@H](C(=O)C[C@@]4(C)O)/C(C=O)=C\C[C@H]32)O1` [OPHIOBOLIN A], the IC50 (Plasmodium falciparum [1]) was less than 0.529 µg/mL, the IC50 [2] was 0.05 µg/mL (≈ 0.125 µM) and the IC50 (P388) was 0.025 µg/mL (≈ 0.0624 µM). It also gave an IC50 (HT-29) of 0.05 µg/mL (≈ 0.125 µM), an IC50 (Plasmodium falciparum [3]) of 0.58 µg/mL (≈ 1.45 µM) and an IC50 (A549) of 0.05 µg/mL (≈ 0.125 µM).
